Experimental data taken from US7026281B1, “Antagonistic analogs of GH-RH inhibiting IGF-I and -II” (The Administrators of the Tulane Educational Fund, priority 1998, dated 2006).
Square brackets hold non-standard residues; d marks the D form. Peptide text beside a SMILES is read from it. * marks the point of attachment. Phe(4-Cl) = N[C@@H](Cc1ccc(Cl)cc1)C(=O)O; hArg = N=C(N)NCCCC[C@H](N)C(=O)O; X1 = O=C(Cc1c[nH]c2ccccc12)*; Nle = CCCC[C@H](N)C(=O)O; Abu = CC[C@H](N)C(=O)O; PhAc = O=C(Cc1ccccc1)*

Experiments:
[1] = biological target: T1, rat pituitary GH-RH receptors (Rattus norvegicus, UniProt Q02644); experiment: GH-RH radioreceptor binding assay, rat anterior pituitary membrane homogenates; settings: for Ki: competition with [His1,125I-Tyr10,Nle27]hGH-RH(1–32)NH2; for R.A. (relative affinity compared to Standard antagonist): ratio of Ki values
T1 construct: from tissue; host or cells: anterior pituitary of male Sprague-Dawley rats, crude membrane homogenates
T1 sequence (Q02644 23-464): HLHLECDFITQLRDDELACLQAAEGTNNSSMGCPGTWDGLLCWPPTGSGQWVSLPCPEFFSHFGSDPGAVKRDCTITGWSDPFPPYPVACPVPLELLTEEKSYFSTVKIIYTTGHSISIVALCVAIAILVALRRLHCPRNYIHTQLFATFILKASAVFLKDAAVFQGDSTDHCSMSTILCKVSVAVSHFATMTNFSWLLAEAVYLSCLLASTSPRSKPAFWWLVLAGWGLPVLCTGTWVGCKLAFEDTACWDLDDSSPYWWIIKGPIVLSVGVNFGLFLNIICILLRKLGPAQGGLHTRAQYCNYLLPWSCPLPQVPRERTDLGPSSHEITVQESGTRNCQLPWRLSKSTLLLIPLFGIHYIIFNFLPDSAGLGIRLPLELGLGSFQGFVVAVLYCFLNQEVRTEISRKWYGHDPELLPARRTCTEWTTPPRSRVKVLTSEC
Experimental: GH-RH Binding Assay. A sensitive radioreceptor binding assay was developed to determine the binding characteristics of the antagonists of GH-RH (G. Halmos, A. V. Schally et al., Receptor 3, 87–97, 1993), hereby incorporated by reference. The assay is based on binding of labelled [His^1,Nle^27]hGH-RH(1–32)NH2 to rat anterior pituitary membrane homogenates. Iodinated derivatives of [His^1,Nle^27]hGH-RH(1–32)NH2 are prepared by the chloramine-T method (F. C. Greenwood et al., Biochemistry 89:114–123, 1963), hereby incorporated by reference. Pituitaries from male Sprague-Dawley rats (250–300 g) are used to prepare crude membranes. For saturation binding analyses, membrane homogenates are incubated with at least 6 concentrations of [His^1,^125I-Tyr^10,Nle^27]hGH-RH(1–32) NH2, ranging from 0.005 to 0.35 nM in the presence or absence of excess unlabelled peptide (1 μM).
The pellet is counted for radioactivity in a γ-counter. The affinities of the antagonist peptides tested to rat pituitary GH-RH receptors are determined in competitive binding experiments. The final binding affinities are estimated by Ki (dissociation constant of the inhibitor-receptor complex) and are determined by the Ligand PC and McPherson computer programs of Munson and Rodbard (P. J. Munson and D. Rodbard, Anal. Biochem. 107. 220–239, 1980). Relative affinities compared to [Ac-Tyr^1,D-Arg^2]hGH-RH(1–29)NH2, the Standard antagonist, are calculated as the […].

[2] = system: hGH-RH(1–29)NH2 induced GH release; experiment: Inhibition of GH release in superfused rat pituitary system; assay type: cell-based; settings: antagonist 30 nM; for Inhibition of GH release (%) 30 min: 1 nM hGH-RH(1–29)NH2 30 min later; for Inhibition of GH release (%) 60 min: 1 nM hGH-RH(1–29)NH2 60 min later; for Inhibition of GH release (%) 90 min: 1 nM hGH-RH(1–29)NH2 90 min later; for Inhibition of GH release (%) 120 min: 1 nM hGH-RH(1–29)NH2 120 min later; for Inhibition of GH release (%) 0 min: 1 nM hGH-RH(1–29)NH2 at 0 min
Experimental: Superfused Rat Pituitary System.
The analogs were tested in vitro in a test described earlier (S. Vigh and A. V. Schally, Peptides 5:241–347, 1984) with modification (Z. Rekasi and A. V. Schally, P.N.A.S. 90:2146–2149, 1993).
Briefly, the cells are preincubated with peptides for 9 minutes (3 mL) at various concentrations. Immediately after the incubation, 1 nM hGH-RH(1–29)NH2 is administered for 3 minutes (1 mL) [0 minute response]. To check the duration of the antagonistic effect of the analogue, 1 nM hGH-RH(1–29)NH2 is applied 30, 60, 90, and 120 minutes later for 3 minutes [30, 60, 90, 120 min responses]. Net integral values of the GH responses are evaluated. GH responses are compared to and expressed as percent of the original GH response induced by 1 nM GH-RH(1–29)NH2. The effect of the new antagonists are compared to that of [Ac-Tyr^1,D-Arg^2]hGH-RH(1–29)NH2, the “Standard antagonist”.
Growth Hormone Radio-immunoassay.
Rat GH levels in aliquots of undiluted and diluted superfusion samples were measured by double-antibody radioimmunoassay using materials supplied by the National Hormone and Pituitary Program, Baltimore, Md. The results of RIA were analyzed with a computer program developed in our institute (V. Csernus and A. V. Schally, in Neuroendocrine Research Methods, Harwood Academic (Greenstein, B. D. ed., London, pp. 71–109, 1991), hereby incorporated by reference. Inter-assay variation was less than 15% and intra-assay variation was less than 10%.

[3] = system: GH release stimulated by hGH-RH(1–29)NH2; experiment: In vivo inhibition of serum GH response in rats; set-up: species or system rat; settings: for Inhibition of the GH release stimulated by hGH-RH(1–29)NH2 (in words): 80 μg/kg i.v., rats
Experimental: GH-RH antagonistic effect of the analogs was tested on young male Sprague-Dawley rats (200–250 g). In each experiment, 5 groups of 7 animals each were used. The compounds (80 μg/kg) and GH-RH(1–29)NH2 (3 μg/kg) were dissolved in 5.5% mannitol and given intravenously to the jugular vein of the rats under Nembutal anesthesia. The time elapsed between the administrations of the antagonist and GH-RH varied between groups, according to the following schedule. The first group of animals received GH-RH injection 5 min after the administration of the antagonist; for the second, third and fourth group of animals, the time interval elapsed between the injection of the antagonist and that of GH-RH was 15, 30, and 60 min, respectively. The control group was first injected with the solvent alone instead of the antagonist, followed by a GH-RH injection 5 min later.
0.4 mL blood samples were taken for GH RIA before the administration of the antagonist (“blood0”), and 5 min after the injection of GH-RH (“blood1”). The GH response in each group was calculated as rGH=(GHblood1/GHblood0), mean±S.E.M. of the individual differences. Relative inhibition of GH response (%) in each group treated was calculated as […].

[4] = antagonist 80 μg/kg i.v. 5 min before GH-RH
[5] = antagonist 80 μg/kg i.v. 15 min before GH-RH
[6] = antagonist 80 μg/kg i.v. 15 min before GH-RH 3 μg/kg
[7] = antagonist 80 μg/kg i.v. 30 min before GH-RH
[8] = antagonist 80 μg/kg i.v. 30 min before GH-RH 3 μg/kg
[9] = antagonist 80 μg/kg i.v. 60 min before GH-RH
[10] = antagonist 80 μg/kg i.v. 60 min before GH-RH 3 μg/kg
[11] = rGH=GHblood1/GHblood0, antagonist 80 μg/kg i.v. 5 min before GH-RH 3 μg/kg

Row | Ki [1] [nM] | R.A. (relative affinity compared to Standard antagonist) [1] | SMILES | Inhibition of GH release (%) 30 min [2] [%] | Inhibition of GH release (%) 60 min [2] [%] | Inhibition of GH release (%) 90 min [2] [%] | Inhibition of GH release (%) 120 min [2] [%] | Inhibition of GH release (%) 0 min [2] [%] | Inhibition of the GH release stimulated by hGH-RH(1–29)NH2 (in words) [3] | Relative inhibition % of GH response [3, 4] [%] | Relative inhibition % of GH response [3, 5] [%] | GH response mean ± S.E.M. [3, 6] | Relative inhibition % of GH response [3, 7] [%] | GH response mean ± S.E.M. [3, 8] | Relative inhibition % of GH response [3, 9] [%] | GH response mean ± S.E.M. [3, 10] | GH response mean ± S.E.M. [3, 11]
1 | 0.046 | 64 | CCCC[C@H](NC(=O)[C@@H](NC(=O)[C@H](CC(=O)O)NC(=O)[C@H](CCC(N)=O)NC(=O)[C@H](CC(C)C)NC(=O)[C@H](CC(C)C)NC(=O)[C@H](CCCCN)NC(=O)[C@H](CCCNC(=N)N)NC(=O)[C@H](C)NC(=O)[C@H](CO)NC(=O)[C@H](CC(C)C)NC(=O)[C@H](CCC(N)=O)NC(=O)[C@H](CC)NC(=O)[C@H](CC(C)C)NC(=O)[C@@H](NC(=O)[C@H](CCCCN)NC(=O)[C@H](CCCNC(=N)N)NC(=O)[C@H](Cc1ccc(O)cc1)NC(=O)[C@H](CCCNC(=N)N)NC(=O)[C@H](CC(N)=O)NC(=O)[C@@H](NC(=O)[C@H](Cc1ccc(Cl)cc1)NC(=O)[C@@H](NC(=O)[C@H](C)NC(=O)[C@H](CC(=O)O)NC(=O)[C@@H](CCCNC(=N)N)NC(=O)[C@H](Cc1ccc(O)cc1)NC(=O)Cc1c[nH]c2ccccc12)[C@@H](C)CC)[C@@H](C)O)C(C)C)[C@@H](C)CC)C(=O)N[C@H](CCCNC(=N)N)C(=O)N[C@@H](CCCCNC(=N)N)C(N)=O [Peptide 2, [IndAc^0, D-Arg^2, Phe(pCl)^6, Arg^9, Abu^15, Nle^27, D-Arg^28, Har^29]hGH-RH(1–29)NH2] (X1-Y[dR]DAI[Phe(4-Cl)]TNRYRKVL[Abu]QLSARKLLQDI[Nle][dR][hArg]-NH2) | 100 | 100 | 100 | 91 | 100 | strong and long-lasting inhibition | 91 | 45 | 3.45 ± 0.13 | 41 | 3.64 ± 0.71 | 2 | 5.41 ± 1.35 | 1.40 ± 0.29
2 | 0.087 | 34 | CCCC[C@H](NC(=O)[C@@H](NC(=O)[C@H](CC(=O)O)NC(=O)[C@H](CCC(N)=O)NC(=O)[C@H](CC(C)C)NC(=O)[C@H](CC(C)C)NC(=O)[C@H](CCCCN)NC(=O)[C@H](CCCNC(=N)N)NC(=O)[C@H](C)NC(=O)[C@H](CO)NC(=O)[C@H](CC(C)C)NC(=O)[C@H](CCC(N)=O)NC(=O)[C@H](CC)NC(=O)[C@H](CC(C)C)NC(=O)[C@@H](NC(=O)[C@H](CCCCN)NC(=O)[C@H](CCCNC(=N)N)NC(=O)[C@H](Cc1ccc(O)cc1)NC(=O)[C@H](CCCCNC(=N)N)NC(=O)[C@H](CC(N)=O)NC(=O)[C@@H](NC(=O)[C@H](Cc1ccc(Cl)cc1)NC(=O)[C@@H](NC(=O)[C@H](C)NC(=O)[C@H](CC(=O)O)NC(=O)[C@@H](CCCNC(=N)N)NC(=O)[C@H](Cc1ccc(O)cc1)NC(=O)Cc1ccccc1)[C@@H](C)CC)[C@@H](C)O)C(C)C)[C@@H](C)CC)C(=O)N[C@H](CCCNC(=N)N)C(=O)N[C@@H](CCCCNC(=N)N)C(N)=O [Peptide 4, [PhAc^0, D-Arg^2, Phe(pCl)^6, Har^9, Abu^15, Nle^27, D-Arg^28, Har^29]hGH-RH(1–29)NH2] (PhAc-Y[dR]DAI[Phe(4-Cl)]TN[hArg]YRKVL[Abu]QLSARKLLQDI[Nle][dR][hArg]-NH2) | 86 | 80 | 79 | 68 | 83 | strong and long-lasting inhibition | 82 | 43 | 7.73 ± 1.12 | 7 | 12.00 ± 2.54 | 8 | 11.88 ± 0.90 | 3.08 ± 0.58
3 | 0.07 | 42 | CCCC[C@H](NC(=O)[C@@H](NC(=O)[C@H](CC(=O)O)NC(=O)[C@H](CCC(N)=O)NC(=O)[C@H](CC(C)C)NC(=O)[C@H](CC(C)C)NC(=O)[C@H](CCCCN)NC(=O)[C@H](CCCNC(=N)N)NC(=O)[C@H](C)NC(=O)[C@H](CO)NC(=O)[C@H](CC(C)C)NC(=O)[C@H](CCC(N)=O)NC(=O)[C@H](CC)NC(=O)[C@H](CC(C)C)NC(=O)[C@@H](NC(=O)[C@H](CCCCN)NC(=O)[C@H](CCCNC(=N)N)NC(=O)[C@H](Cc1ccc(OC)cc1)NC(=O)[C@H](CO)NC(=O)[C@H](CC(N)=O)NC(=O)[C@@H](NC(=O)[C@H](Cc1ccc(Cl)cc1)NC(=O)[C@@H](NC(=O)[C@H](C)NC(=O)[C@H](CC(=O)O)NC(=O)[C@@H](CCCNC(=N)N)NC(=O)[C@H](Cc1ccc(O)cc1)NC(=O)Cc1ccccc1)[C@@H](C)CC)[C@@H](C)O)C(C)C)[C@@H](C)CC)C(=O)N[C@@H](CO)C(=O)N[C@H](CCCNC(=N)N)C(N)=O [Peptide 16, [PhAc^0, D-Arg^2, Phe(pCl)^6, Tyr(Me)^10, Abu^15, Nle^27, D-Arg^29]hGH-RH(1–29)NH2] (PhAc-Y[dR]DAI[Phe(4-Cl)]TNSY(Me)RKVL[Abu]QLSARKLLQDI[Nle]S[dR]-NH2) | 87 | 83 | 56 | 65 | 65 | strong and long-lasting inhibition | 77 | 70 | 3.44 ± 0.62 | 48 | 5.24 ± 1.36 | 0 | 9.19 ± 1.89 | 2.89 ± 0.65
